≈ marks a conversion by molar mass, not a printed value.
Columns and labels:
Assay in all cases: in vitro antibacterial evaluation, MIC by broth dilution
Assay type in all cases: cell-based
Escherichia coli = conditions: 18 hours at 35° C.
Streptococcus sp. = conditions: broth dilution, 18 hours at 35° C.
Summary of the method: (§1)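 Broth dilution per NCCLS M7-A2 in Mueller-Hinton II medium, inoculum 5×10^5 CFU/mL, antibiotic range 64-0.06 μg/mL. MIC taken as lowest concentration inhibiting growth; Gram-positive panel includes recent clinical isolates resistant to methicillin, penicillin and/or vancomycin.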

Enterococcus sp. = conditions: broth dilution, 18 hours at 35° C.
Summary of the method: as §1

Staphylococcus sp. = conditions: broth dilution, 18 hours at 35° C.
Summary of the method: as §1

MIC Escherichia coli (ATCC 25922) (Escherichia coli): >64 µg/mL
MIC Escherichia coli (GC 4559) (Escherichia coli): 64 µg/mL (≈ 46 µM)
MIC Escherichia coli (GC 4560) (Escherichia coli): 2 µg/mL (≈ 1.44 µM)
MIC Streptococcus agalactiae (GC 4564) (Streptococcus sp.): 4 µg/mL (≈ 2.87 µM)
MIC Streptococcus pneumoniae (ATCC 6301) (Streptococcus sp.): 1 µg/mL (≈ 0.719 µM)
MIC Streptococcus pneumoniae (GC 1894) (Streptococcus sp.): 0.5 µg/mL (≈ 0.359 µM)
MIC Streptococcus pneumoniae (GC 4565) (Streptococcus sp.): 1 µg/mL (≈ 0.719 µM)
MIC Streptococcus pyogenes (GC 4563) (Streptococcus sp.): 2 µg/mL (≈ 1.44 µM)
MIC Streptococcus pneumoniae (ATCC 6301) (Streptococcus sp.; inoculum 5×10^5 CFU/mL, strain ATCC 6301): 1 µg/mL (≈ 0.719 µM)
MIC Streptococcus pneumoniae (GC 1894) (Streptococcus sp.; inoculum 5×10^5 CFU/mL, strain GC 1894): 0.5 µg/mL (≈ 0.359 µM)
MIC Streptococcus pyogenes (GC 4563) (Streptococcus sp.; inoculum 5×10^5 CFU/mL, strain GC 4563): 2 µg/mL (≈ 1.44 µM)
MIC Streptococcus agalactiae (GC 4564) (Streptococcus sp.; inoculum 5×10^5 CFU/mL, strain GC 4564): 4 µg/mL (≈ 2.87 µM)
MIC Streptococcus pneumoniae (GC 4565) (Streptococcus sp.; inoculum 5×10^5 CFU/mL, strain GC 4565): 1 µg/mL (≈ 0.719 µM)
MIC Enterococcus avium (GC 4558) (Enterococcus sp.): 32 µg/mL (≈ 23 µM)
MIC Enterococcus faecalis (ATCC 29212) (Enterococcus sp.): 32 µg/mL (≈ 23 µM)
MIC Enterococcus faecalis (GC 2242) (Enterococcus sp.): 32 µg/mL (≈ 23 µM)
MIC Enterococcus faecalis (GC 2691) (Enterococcus sp.): 32 µg/mL (≈ 23 µM)
MIC Enterococcus faecalis (GC 3059) (Enterococcus sp.): 64 µg/mL (≈ 46 µM)
MIC Enterococcus faecalis (GC 4552) (Enterococcus sp.): 32 µg/mL (≈ 23 µM)
MIC Enterococcus faecalis (GC 4553) (Enterococcus sp.): 32 µg/mL (≈ 23 µM)
MIC Enterococcus faecalis (GC 4554) (Enterococcus sp.): 64 µg/mL (≈ 46 µM)
MIC Enterococcus faecalis (GC 6189) (Enterococcus sp.): 32 µg/mL (≈ 23 µM)
MIC Enterococcus faecium (GC 2243) (Enterococcus sp.): 32 µg/mL (≈ 23 µM)
MIC Enterococcus faecium (GC 4556) (Enterococcus sp.): 32 µg/mL (≈ 23 µM)
MIC Enterococcus faecium (GC 4557) (Enterococcus sp.): 4 µg/mL (≈ 2.87 µM)
MIC Enterococcus faecalis (ATCC 29212) (Enterococcus sp.; strain ATCC 29212): 32 µg/mL (≈ 23 µM)
MIC Enterococcus faecium (GC 2243) (Enterococcus sp.; strain GC 2243): 32 µg/mL (≈ 23 µM)
MIC Enterococcus faecalis (GC 4552) (Enterococcus sp.; strain GC 4552): 32 µg/mL (≈ 23 µM)
MIC Enterococcus faecalis (GC 4553) (Enterococcus sp.; strain GC 4553): 32 µg/mL (≈ 23 µM)
MIC Enterococcus faecalis (GC 4554) (Enterococcus sp.; strain GC 4554): 64 µg/mL (≈ 46 µM)
MIC Enterococcus faecium (GC 4556) (Enterococcus sp.; strain GC 4556): 32 µg/mL (≈ 23 µM)
MIC Enterococcus faecium (GC 4557) (Enterococcus sp.; strain GC 4557): 4 µg/mL (≈ 2.87 µM)
MIC Enterococcus avium (GC 4558) (Enterococcus sp.; strain GC 4558): 32 µg/mL (≈ 23 µM)
MIC Enterococcus faecalis (GC 6189) (Enterococcus sp.; strain GC 6189): 32 µg/mL (≈ 23 µM)
MIC Enterococcus faecalis (GC 2242) (Enterococcus sp.; inoculum 5×10^5 CFU/mL, strain GC 2242): 32 µg/mL (≈ 23 µM)
MIC Enterococcus faecalis (GC 2691) (Enterococcus sp.; inoculum 5×10^5 CFU/mL, strain GC 2691): 32 µg/mL (≈ 23 µM)
MIC Enterococcus faecalis (GC 3059) (Enterococcus sp.; inoculum 5×10^5 CFU/mL, strain GC 3059): 64 µg/mL (≈ 46 µM)
MIC Coagulase Negative Staphylococcus (GC 4547) (Staphylococcus sp.): 4 µg/mL (≈ 2.87 µM)
MIC Coagulase Negative Staphylococcus (GC 4548) (Staphylococcus sp.): 2 µg/mL (≈ 1.44 µM)
MIC Coagulase Negative Staphylococcus (GC 4549) (Staphylococcus sp.): 2 µg/mL (≈ 1.44 µM)
MIC Coagulase Negative Staphylococcus (GC 4551) (Staphylococcus sp.): 4 µg/mL (≈ 2.87 µM)
MIC Coagulase Negative Staphylococcus (GC 6257) (Staphylococcus sp.): 2 µg/mL (≈ 1.44 µM)
MIC Staphylococcus aureus (ATCC 29213) (Staphylococcus sp.): 8 µg/mL (≈ 5.75 µM)
MIC Staphylococcus aureus (GC 1131) (Staphylococcus sp.): 8 µg/mL (≈ 5.75 µM)
MIC Staphylococcus aureus (GC 3051) (Staphylococcus sp.): 8 µg/mL (≈ 5.75 µM)
MIC Staphylococcus aureus (GC 3053) (Staphylococcus sp.): 16 µg/mL (≈ 11.5 µM)
MIC Staphylococcus aureus (GC 4541) (Staphylococcus sp.): 8 µg/mL (≈ 5.75 µM)
MIC Staphylococcus aureus (GC 4542) (Staphylococcus sp.): 1 µg/mL (≈ 0.719 µM)
MIC Staphylococcus aureus (GC 4544) (Staphylococcus sp.): 8 µg/mL (≈ 5.75 µM)
MIC Staphylococcus aureus (GC 4545) (Staphylococcus sp.): 8 µg/mL (≈ 5.75 µM)
MIC Staphylococcus aureus-SMITH (GC 4543) (Staphylococcus sp.): 4 µg/mL (≈ 2.87 µM)
MIC Staphylococcus aureus (ATCC 29213) (Staphylococcus sp.; strain ATCC 29213): 8 µg/mL (≈ 5.75 µM)
MIC Staphylococcus aureus (GC 1131) (Staphylococcus sp.; strain GC 1131): 8 µg/mL (≈ 5.75 µM)
MIC Staphylococcus aureus (GC 3051) (Staphylococcus sp.; strain GC 3051): 8 µg/mL (≈ 5.75 µM)
MIC Staphylococcus aureus (GC 3053) (Staphylococcus sp.; strain GC 3053): 16 µg/mL (≈ 11.5 µM)
MIC Staphylococcus aureus (GC 4541) (Staphylococcus sp.; strain GC 4541): 8 µg/mL (≈ 5.75 µM)
MIC Staphylococcus aureus (GC 4542) (Staphylococcus sp.; strain GC 4542): 1 µg/mL (≈ 0.719 µM)
MIC Staphylococcus aureus-SMITH (GC 4543) (Staphylococcus sp.; strain GC 4543): 4 µg/mL (≈ 2.87 µM)
MIC Staphylococcus aureus (GC 4544) (Staphylococcus sp.; strain GC 4544): 8 µg/mL (≈ 5.75 µM)
MIC Staphylococcus aureus (GC 4545) (Staphylococcus sp.; strain GC 4545): 8 µg/mL (≈ 5.75 µM)
MIC Coagulase Negative Staphylococcus (GC 4547) (Staphylococcus sp.; strain GC 4547): 4 µg/mL (≈ 2.87 µM)
MIC Coagulase Negative Staphylococcus (GC 4548) (Staphylococcus sp.; strain GC 4548): 2 µg/mL (≈ 1.44 µM)
MIC Coagulase Negative Staphylococcus (GC 4549) (Staphylococcus sp.; strain GC 4549): 2 µg/mL (≈ 1.44 µM)
MIC Coagulase Negative Staphylococcus (GC 4551) (Staphylococcus sp.; strain GC 4551): 4 µg/mL (≈ 2.87 µM)
MIC Coagulase Negative Staphylococcus (GC 6257) (Staphylococcus sp.; strain GC 6257): 2 µg/mL (≈ 1.44 µM)
Structure (SMILES): CC(c1ccccc1)C1NC(=O)CNC(=O)C(CO)NC(=O)C(C(O)C2CNC(=N)N2C2OC(CO)C(O)C(O)C2O)NC(=O)C(C(O)C2CNC(=N)N2)NC(=O)C(Cc2ccc(OC3OC(CO)C(OC4OC(COCc5cccs5)C(O)C(O)C4O)C(O)C3O)cc2)NC1=O (stereo not shown) [Example 244]
MIC Staphylococcus haemolyticus (GC 4546) (Staphylococcus sp.): 4 µg/mL (≈ 2.87 µM)
MIC Staphylococcus haemolyticus (GC 4546) (Staphylococcus sp.; strain GC 4546): 4 µg/mL (≈ 2.87 µM)
